Key:
human GPR40 = biological target: T1, human GPR40 (Homo sapiens, UniProt O14842); assay: GPR40 β-arrestin 2 recruitment BRET, agonist mode; assay type: cell-based; conditions: HEK293 cells, read-out: GPR40 (agonist mode) EC50 β-arr2
T1 construct: host or cells: HEK293 (transient)
Text: (§1) Plasmids: The cDNA clones for human GPR40 and GPR84 receptors, human β-arrestin 2, Gαi2, Gβ1, and Gγ2 were obtained from the cDNA Resource Center (www.cdna.org). A plasmid encoding the human GPR120-L (long isoform) cDNA was obtained from R&D Systems. GPR120-S (short isoform) was generated by replacing the BglII-BsgI fragment from GPR120-L by a gBlock gene fragment (Integrated DNA Technologies, IA) lacking the DNA sequence corresponding to the extra 16 amino acids found in the third intracellular loop of the long form. GFP10 (F64L, S147P, S202F and H231L variant of Aequorea victoria GFP) gBlocks gene fragments (Integrated DNA Technologies) and linker were inserted in frame at the N-terminus of human Gγ2, or at the C-terminus of GPR40 and GPR120. Rluc8 (A55T, C124A, S130A, K136R, A143M, M185V, M253L, and S287L variant of the Renilla luciferase) gBlocks gene fragment (Integrated DNA Technologies) was inserted with linkers in between residues 91 and 92 of Gα2 or at the N-terminus of β-arrestin 2.
(§2) BRET measurements: a Gαi bioluminescence resonance energy transfer (BRET) biosensor was used to directly monitor GPR84-mediated activation of Gαi. The Gαi biosensor consists of a Rluc8-tagged Gαi2 subunit, a GFP10-tagged Gγ2 subunit, and an untagged Gβ1. Agonist stimulation and ensuing GPR84 activation triggers a physical separation between the RLuc8-Gαi donor and the GFP10-Gγ2 acceptor, resulting in a decrease in BRET signal whose amplitude is correlated to ligand efficacy. A BRET-based assay that allows the monitoring of Rluc8-tagged β-arrestin 2 recruitment to GFP10-tagged GPR40 or GFP10-tagged GPR120 was used to assess GPR40 or GPR120 activation. Transiently transfected HEK293 cells were seeded in 96-well white clear bottom Costar microplates (Fisher Scientific) coated with poly-D-lysine (Sigma-Aldrich) and left in culture for 24 hours. Cells were washed once with Tyrode's buffer (140 mmol/L NaCl, 1 mmol/L CaCl2, 2.7 mmol/L KCl, 0.49 mmol/L MgCl2, 0.37 mmol/L NaH2PO4, 5.6 mmol/L glucose, 12 mmol/L NaHCO3, and 25 mmol/L HEPES, pH 7.5) and the Rluc8 substrate coelenterazine 400A (Prolume, Lakeside, Ariz.) added at a final concentration of 5 μmol/L in Tyrode's buffer. Ligands were incubated with cells at room temperature for 5 minutes (G protein) or 25 minutes (β-arrestin) before reading BRET signal. In GPR84 antagonist mode, cells were treated with 125 μmol/L of the GPR84 agonist sodium decanoate in combination with test compounds. BRET readings were collected using an Infinite M1000 microplate reader (Tecan, Morrisville, N.C.). BRET^2 readings between Rluc8 and GFP10 were collected by sequential integration of the signals detected in the 370 to 450 nm (Rluc8) and 510 to 540 nm (GFP10) windows. The BRET signal was calculated as the ratio of light emitted by acceptor (GFP10) over the light emitted by donor (Rluc8). The values were corrected to net BRET by subtracting the background BRET signal obtained in cells transfected with Rluc8 constructs alone. Ligand-promoted net BRET values were calculated by subtracting vehicle-induced net BRET from ligand-induced net BRET.

human GPR120 = biological target: T2, human GPR120 (Homo sapiens, UniProt Q5NUL3); assay: GPR120 β-arrestin 2 recruitment BRET, agonist mode; assay type: cell-based; conditions: HEK293 cells, read-out: GPR120 (agonist mode) EC50 β-arr2
T2 sequence (Q5NUL3 1-361): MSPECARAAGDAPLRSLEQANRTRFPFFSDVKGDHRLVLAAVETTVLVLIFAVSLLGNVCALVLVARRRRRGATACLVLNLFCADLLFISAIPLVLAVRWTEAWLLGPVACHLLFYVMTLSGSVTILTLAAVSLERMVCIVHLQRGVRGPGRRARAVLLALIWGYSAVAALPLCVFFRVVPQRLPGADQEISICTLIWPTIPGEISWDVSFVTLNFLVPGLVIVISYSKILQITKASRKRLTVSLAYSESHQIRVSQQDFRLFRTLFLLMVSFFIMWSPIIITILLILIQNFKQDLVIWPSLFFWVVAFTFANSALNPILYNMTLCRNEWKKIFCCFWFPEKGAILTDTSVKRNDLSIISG
Text: as §1, §2

human GPR84 [1] = biological target: T3, human GPR84 (Homo sapiens, UniProt Q9NQS5); assay: GPR84 Gαi BRET biosensor, agonist activity; assay type: cell-based; conditions: HEK293 cells
T3 construct: host or cells: HEK293 (transient)
Text: as §1, §2

[2] = biological target: T4, human PPARγ ligand binding domain (LBD) (Homo sapiens, UniProt P37231); assay: Cell-based GAL4 PPAR transactivation assay in HEK293 cells, PPARγ; conditions: 24 h
T4 construct: PPARγ (S176-Y477); host or cells: HEK293
T4 sequence (P37231 176-477 isoform P37231-2): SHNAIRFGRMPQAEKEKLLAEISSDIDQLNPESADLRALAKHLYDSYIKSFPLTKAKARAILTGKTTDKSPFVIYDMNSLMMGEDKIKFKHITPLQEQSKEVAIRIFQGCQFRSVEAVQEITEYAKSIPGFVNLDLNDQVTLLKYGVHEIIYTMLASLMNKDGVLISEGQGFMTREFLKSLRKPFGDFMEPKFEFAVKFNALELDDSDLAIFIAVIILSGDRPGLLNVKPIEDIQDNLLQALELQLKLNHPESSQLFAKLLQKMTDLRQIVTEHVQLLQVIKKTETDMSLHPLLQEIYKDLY
Method: (§3) The peroxisome proliferator-activated receptors (PPARs), PPARα, PPARδ, and PPARγ are ligand-dependent transcription factors that control expression of several key metabolism-associated genes. The transcriptional activity of representative compounds of formula I to these receptors was assessed using a cell-based GAL4 transactivation assay in HEK293 cells transfected with either PPARα, PPARδ, or PPARγ ligand binding domain (LBD), and was compared to that of the full control agonists GW7647 (PPARα), GW0742 (PPARδ), and rosiglitazone (PPARγ).
(§4) Plasmids: The hinge region and ligand binding domain (LBD) from human PPARα (S167-Y468), PPARδ (S139-Y440) and PPARγ (S176-Y477) were PCR-amplified from a PPARα cDNA clone (cDNA Resource Center, http://www.cdna.org) or from PPARδ1 and PPARγ1 LBD gBlocks™ gene fragments (Integrated DNA Technologies). The PPAR LBD PCR products were inserted in frame with the GAL4 DNA binding domain in the pFN26A(BIND)-hRlu-neo Flexi vector (Promega) at SgfI and PmeI sites to generate GAL4-PPAR-Rluc.
(§5) Cell-based PPAR transactivation assay. HEK293 cells were co-transfected with pGL4.35[luc2P/9XGAL4UAS/Hygro] (Promega) and GAL4-PPAR-Rluc plasmids, and after 24 h of incubation were treated with compounds for 24 h. Luciferase activity was determined with the Dual Glo™ luciferase assay (Promega). Firefly luminescence was normalized to the constitutively expressed Renilla luminescence, and results expressed as fold induction of vehicle control or percentage of reference agonist maximal activity.

[3] = biological target: T5, human PPARδ ligand binding domain (LBD) (Homo sapiens, UniProt Q03181); assay: Cell-based GAL4 PPAR transactivation assay in HEK293 cells, PPARδ; conditions: 24 h
T5 construct: PPARδ (S139-Y440); host or cells: HEK293
T5 sequence (Q03181 139-441 limits assumed): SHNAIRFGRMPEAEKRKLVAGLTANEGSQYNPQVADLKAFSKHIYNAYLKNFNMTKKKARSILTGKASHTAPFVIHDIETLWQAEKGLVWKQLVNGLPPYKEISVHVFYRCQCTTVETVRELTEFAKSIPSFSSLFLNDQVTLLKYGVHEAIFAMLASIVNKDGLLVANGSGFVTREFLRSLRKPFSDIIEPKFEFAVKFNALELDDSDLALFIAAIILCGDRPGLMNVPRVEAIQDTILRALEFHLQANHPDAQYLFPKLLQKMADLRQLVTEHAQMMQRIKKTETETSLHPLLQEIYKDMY
Method: as §3, §4, §5

[4] = biological target: T6, human PPARα ligand binding domain (LBD) (Homo sapiens, UniProt Q07869); assay: Cell-based GAL4 PPAR transactivation assay in HEK293 cells, PPARα; conditions: 24 h
T6 construct: human PPARα (S167-Y468); expressed in transfected cells; host or cells: HEK293
T6 sequence (Q07869 167-468): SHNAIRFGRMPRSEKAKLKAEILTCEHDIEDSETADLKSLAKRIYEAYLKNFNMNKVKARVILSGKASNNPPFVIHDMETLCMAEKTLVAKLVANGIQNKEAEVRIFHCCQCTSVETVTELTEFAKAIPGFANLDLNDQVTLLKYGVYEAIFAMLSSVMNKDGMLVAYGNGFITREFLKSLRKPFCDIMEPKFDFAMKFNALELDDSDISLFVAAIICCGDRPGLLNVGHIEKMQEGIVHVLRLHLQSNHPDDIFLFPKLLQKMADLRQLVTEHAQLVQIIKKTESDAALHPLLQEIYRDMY
Method: as §3, §4, §5

human GPR84 [5] = biological target: T3, human GPR84; assay: GPR84 Gαi BRET biosensor, antagonist mode (125 μmol/L sodium decanoate); assay type: cell-based; conditions: HEK293 cells, with 125 μmol/L sodium decanoate
Text: as §1, §2

T3 sequence (Q9NQS5 whole entry): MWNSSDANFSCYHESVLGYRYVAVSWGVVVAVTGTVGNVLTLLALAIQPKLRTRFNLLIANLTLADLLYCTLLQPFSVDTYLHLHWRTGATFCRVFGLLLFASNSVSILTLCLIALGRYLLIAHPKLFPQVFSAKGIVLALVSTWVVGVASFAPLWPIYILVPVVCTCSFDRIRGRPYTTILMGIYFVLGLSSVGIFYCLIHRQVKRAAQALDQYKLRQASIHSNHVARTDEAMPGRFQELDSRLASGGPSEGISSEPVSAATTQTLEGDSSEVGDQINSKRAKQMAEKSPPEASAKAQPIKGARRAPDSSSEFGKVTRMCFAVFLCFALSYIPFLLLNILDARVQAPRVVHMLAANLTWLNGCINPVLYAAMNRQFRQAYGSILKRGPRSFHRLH
T1 sequence (O14842 whole entry): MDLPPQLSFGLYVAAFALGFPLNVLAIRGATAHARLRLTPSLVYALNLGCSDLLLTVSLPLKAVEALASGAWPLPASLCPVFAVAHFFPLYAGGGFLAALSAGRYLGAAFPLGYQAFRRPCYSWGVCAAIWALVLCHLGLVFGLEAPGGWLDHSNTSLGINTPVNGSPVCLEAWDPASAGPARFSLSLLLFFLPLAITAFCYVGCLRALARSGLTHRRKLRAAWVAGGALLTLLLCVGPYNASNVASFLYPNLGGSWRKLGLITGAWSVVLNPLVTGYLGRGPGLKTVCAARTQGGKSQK

Row | SMILES | EC50 (human GPR40) | EC50 (human GPR120) | EC50 (human GPR84 [1]) | PPARγ (GAL4 reporter) % efficacity relative to rosiglitazone [2] | PPARδ (GAL4 reporter) % efficacity relative to GW0742 [3] | PPARα (GAL4 reporter) % efficacity relative to GW7647 [4] | IC50 (human GPR84 [5])
1 | CC1(C)CC1CCCCCCCC(=O)O (centres unmarked) | 11 µM | 77 µM | 5 µM |  |  |  | 
2 | CCCCCCC1C(CC(=O)[O-])C1(C)C.[Na+] (centres unmarked) [drawing 322] |  |  |  | 8% | 2% | 91% | 
3 | CCCCCCCCC1(C(=O)O)CC1 | 164 µM | 245 µM |  |  |  |  | 115 µM
4 | CCCCCCCC1CC1C(=O)O (centres unmarked) | 49 µM | > 250 µM | 13 µM |  |  |  | 
5 | CCCCCC1C(CCC(=O)O)C1(F)F (centres unmarked) | 133 µM | > 500 µM | 79 µM |  |  |  | 
6 | CCCCCCC1C(CC(=O)[O-])C1(C)C.[Na+] (centres unmarked) [drawing 323] |  |  |  | 4% | −6% | 33% | 
7 | CC1(C)CC1CCCCCC1CC1C(=O)O (centres unmarked) | 14.3 µM | 35 µM |  |  |  |  | 
8 | CC1(C)CC1CCCCC1CC1C(=O)[O-].[Na+] (centres unmarked) |  |  |  | 5% | 5% | 43% | 
9 | CCCCCCC1CC(C(=O)O)C1 (centres unmarked) | 63.4 µM | 382 µM | 73 µM |  |  |  | 
10 | CCCCCC1CC(CC(=O)O)C1(C)C (centres unmarked) | 15 µM | 90 µM |  |  |  |  | 49 µM
11 | CCCCCC1CC(=CC(=O)O)C1 (centres unmarked) | 70 µM | 88 µM | < 16 µM |  |  |  | 
12 | [2H]C1([2H])C(CCCCCC)C1CC(=O)[O-].[Na+] (centres unmarked) |  |  |  | 3% | 2% | 20% | 
13 | CCCCCC1C(CCC(=O)O)C1(Br)Br (centres unmarked) | 16 µM | 45 µM |  |  |  |  | 20 µM
14 | CCCCCCC1C(CC(=O)O)C1(C)C (centres unmarked) [drawing 299] | 30 µM | > 125 µM |  |  |  |  | 56 µM
15 | CCCCCCC1C(CC(=O)O)C1(C)C (centres unmarked) [drawing 311] | 174 µM | > 500 µM |  |  |  |  | 468 µM
16 | CCCCCCC1C(CC(=O)O)C1(F)F (centres unmarked) | 126 µM | 383 µM |  |  |  |  | 117 µM
